What was measured:
GST-fused lck SH2 domain = molecular target: T1, GST-fused lck SH2 domain (Homo sapiens, UniProt P06239); test: Inhibition of in vitro binding of lck SH2 domain to its cognate pYEEI peptide (BIAcore 2000); settings: IC50 class for inhibition of GST-lckSH2 binding to immobilized biotinylated […]pYEEIPI peptide; read-out: BOND DEGREE WITH SH2 OF 1ck
T1 construct: GST (Glutathione transferase)-fused lck SH2 domain
Protocol: The present inventors investigated the inhibition activity of phenyl derivatives on the interaction of GST (Glutathione transferase)-fused lck SH2 domain and a peptide […]pYEEIPI (comprising the sequence PYEEI, a cognate peptide of Lck SH2) by using a real time sensorgram (BIAcore 2000).
At first, the biotinylated peptide was fixed on the surface of BIAcore analysis apparatus and then GST-lckSH2 protein was injected over the surface of the immobilized peptides. The binding of GST-lck SH2 with the peptide is represented as the resonance units (referred as “RU” hereinafter) and 1,000 RU corresponds to a change in surface concentration of 1 ng/mm^2. The binding of GST-lck with the fixed peptide causes the change of refractory index, leading to the increase of RU. In the mean time, when the binding of GST-lck with the fixed peptide is inhibited, RU decreases. Those results are represented in Table 1.

skin allograft rejection = test: Inhibition of skin allograft rejection (Balb/c tail skin grafted onto C57BL/6 mouse); type: in vivo
Protocol: For the experiment, allogeneic Balb/c(H-2d) mouse-tail skin was grafted onto C57BL/6(H-2b) mouse. Generally 7-8 mice were assigned to each group. All the phenyl derivatives were dissolved in 100% ethanol, mixed with olive oil, and adjusted to the final concentration of ethanol therein less than 5%. […] Meanwhile, for the group of untreated mice, an olive oil-ethanol mixture was administered as a control. The grafted skin was monitored daily after the removal of the bandage on days 7-9. Rejection was defined as more than 80% necrosis of the graft epithelium.

IL-2 promoter = IL-2 promoter luciferase reporter assay in anti-CD3 activated Jurkat cells; type: cell-based; settings: Homo sapiens, TCR-induced (anti-CD3) IL-2 promoter luciferase, 2 h pre-incubation
Protocol: In order to confirm whether the compounds of the invention can pass through a cell membrane and inhibit the expression of IL-2 gene leading to T-cell proliferation, the present inventors firstly confirmed T-cell activity by detecting the activity of the luciferase fused on the downstream of IL-2 promoter.
To investigate the activity of IL-2 promoter, Jurkat cells (1×10^6) were transfected with a IL-2 reporter plasmids using Superfect™ (Qiagen Inc.). After 24 hours of transfection, Jurkat cells were pre-incubated with compounds of various concentrations (1 uM-50 uM) for 2 hours and further cultured on 35mm plate pre-coated with 5 ug/ml of anti-CD3 antibody, resulting in T cell activation. The luciferase activity was measured using Berthold luminometer LB953. The IC50 (50% inhibition concentration) of the compounds of the invention on TCR-induced IL-2 promoter activation are shown in Table 2.

[1] = system: collagen-induced rheumatoid arthritis; test: Inhibition of collagen-induced rheumatoid arthritis in DBA1/LacJ mice; type: in vivo, mouse; set-up: key: sum of 4 leg scores (0-4 each), max 16; settings: 50 mg/kg/day i.p. daily; day 15 after treatment (day 36 after primary immunization); sum of scores of four legs, maximum 16; mean ± standard deviation
Protocol: After 2 weeks, booster immunization was carried out with 50 μg C II/IFA. From the 3rd week after primary immunization, compounds of the present invention were injected daily into peritoneal cavities of 6-8 mice per group for 15-20 days.
The vehicle control groups were injected daily with 100 μl of 5% ethanol-olive oil mixture in total 15-20 times. Widely used anti-rheumatic drug, Methotrexate, was dissolved in PBS and then injected to mice at 1 mg/kg/day every other day in total 8-10 times. Meanwhile, the compounds of the invention were dissolved in ethanol and then mulsified in olive oil, in which the final ethanol concentration was adjusted to 5% and the compounds of this invention was 50 mg/kg/day.
From the 3rd week after primary immunization, the extent of edema and the joint swelling was monitored everyday to determine arthritic index. Arthitic index is the sum of the arthritic scores of all 4 legs and, therefore, maximum arthritis index of 16 can be achieved (e.g., [4 (maximum arthritic score)/leg]×[4 legs/mouse]=16 (maximum arthritis index/mouse)). […] was presented by the mean arthritis index±standard deviation of each mouse group.

[2] = 100 mg/kg/day into abdominal cavity from day of transplantation until complete rejection

T1 sequence (P06239 127-224 limits assumed): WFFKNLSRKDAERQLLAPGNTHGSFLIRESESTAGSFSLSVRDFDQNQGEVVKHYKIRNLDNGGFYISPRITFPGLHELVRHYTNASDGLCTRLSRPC

| SMILES | IC50 (GST-fused lck SH2 domain) | Survival time of skin graft tissue (days ± variance) (skin allograft rejection; [2]) | IC50 (IL-2 promoter) | Arthritis index [1] | Survival time of skin graft tissue (days ± variance) (skin allograft rejection; Example (1) 50 mg/kg/day) |
| --- | --- | --- | --- | --- | --- |
| O=C(/C=C/c1ccc(O)c(O)c1)N[C@@H](Cc1ccc(O)c(O)c1)C(=O)O [Example 9, 3-(3,4-dihydroxy-phenyl)-(S)-2-[3-trans-(3,4-dihydroxy-phenyl)-acryloylamino]-propionic acid] | 25 to 50 µM | 14.8 ± 0.9 days | 18.2 µM | 7.2 ± 1.2 |  |
| CC(C)(C)OC(=O)[C@@H](Cc1ccc(O)c(O)c1)OC(=O)/C=C/c1ccc(O)c(O)c1 [Example 56, (R)-3-(3,4-Dihydroxy-phenyl)-acrylic acid 2-(3,4-dihydroxy-phenyl)-1-tert-butoxycarbonyl ethyl ester] | 25 to 50 µM | 12.9 ± 1.2 days | 6.2 µM | 5.2 ± 0.5 |  |
| CC(C)NC(=O)[C@@H](Cc1ccc(O)c(O)c1)OC(=O)/C=C/c1ccc(O)c(O)c1 [Example 58, (R)-3-(3,4-Dihydroxy-phenyl)-acrylic acid 2-(3,4-dihydroxy-phenyl)-1-isopropylcarbamoyl ethyl ester] | 25 to 50 µM | 12.5 ± 1.3 days | 5.4 µM | 4.8 ± 0.7 |  |
| CCCOC(=O)[C@H](Cc1ccc(O)c(O)c1)NC(=S)/C=C/c1ccc(O)c(O)c1 [Example 25, 3-(3,4-dihydroxy-phenyl)-(S)-2-[3-trans-(3,4-dihydroxy-phenyl)-thioacryloylamino]-propionic acid propyl ester] | 10 to 25 µM | 14.8 ± 0.6 days | 9.7 µM | 5.7 ± 0.4 |  |
| CC(C)(C)OC(=O)[C@H](Cc1ccc(O)c(O)c1)NC(=S)/C=C/c1ccc(O)c(O)c1 [Example 27, 3-(3,4-dihydroxy-phenyl)-(S)-2-[3-trans-(3,4-dihydroxy-phenyl)-thioacryloylamino]-propionic acid tert-butyl ester] | 25 to 50 µM | 12.3 ± 0.6 days | 20.1 µM | 6.6 ± 1.1 |  |
| CCOC(=O)[C@H](Cc1ccc(O)c(O)c1)NC(=O)/C=C/c1ccc(O)c(O)c1 [Example 10, 3-(3,4-dihydroxy-phenyl)-(S)-2-[3-trans-(3,4-dihydroxy-phenyl)-acryloylamino]-propionic acid ethyl ester] | 10 to 25 µM | 15.3 ± 0.8 days | 4.4 µM | 5.8 ± 0.8 |  |
| CCCOC(=O)[C@@H](Cc1ccc(O)c(O)c1)OC(=O)/C=C/c1ccc(O)c(O)c1 [Example 55, (R)-3-(3,4-Dihydroxy-phenyl)-acrylic acid 2-(3,4-dihydroxy-phenyl)-1-propoxycarbonyl ethyl ester] | 10 to 25 µM | 12.1 ± 0.8 days | 5.7 µM | 4.8 ± 0.8 |  |
| O=C(/C=C/c1ccc(O)c(O)c1)N[C@@H](Cc1ccc(O)cc1)C(=O)O [Example 48, (S)-2-[trans-3-(3,4-dihydroxy-phenyl)-acryloylamino]-3-(4-hydroxy-phenyl)-propionic acid] | 25 to 50 µM | 12 ± 1.6 days | 22.3 µM | 7.1 ± 0.4 |  |
| CCCOC(=O)[C@H](Cc1ccc(O)c(O)c1)N(C)C(=O)/C=C/c1ccc(O)c(O)c1 [Example 39, 3-(3,4-dihydroxy-phenyl)-(S)-2-{[3-trans-(3,4-dihydroxy-phenyl)-acryloyl]-methyl-amino}-propionic acid propyl ester] | 10 to 25 µM | 14.1 ± 1.2 days | 9.7 µM | 5.7 ± 1.2 |  |
| NC(=O)[C@H](Cc1ccc(O)c(O)c1)NC(=O)/C=C/c1ccc(O)c(O)c1 [Example 14] | 10 to 25 µM | 15.3 ± 0.9 days | 6.9 µM | 5.3 ± 1.2 |  |
| CCCOC(=O)[C@H](Cc1ccc(O)c(O)c1)NC(=O)/C=C/c1ccc(O)c(O)c1 [Example 11, 3-(3,4-dihydroxy-phenyl)-(S)-2-[3-trans-(3,4-dihydroxy-phenyl)-acryloylamino]-propionic acid propyl ester] | 10 to 25 µM | 14.4 ± 0.9 days | 4.9 µM | 6.1 ± 1.3 |  |
| COC(=O)C(Cc1ccc(O)c(O)c1)NC(=O)Cc1ccc(O)c(O)c1 (stereo not drawn) [Example 50, 3-(3,4-dihydroxy-phenyl)-2-[2-(3,4-dihydroxy-phenyl)-acetylamino]-propionic acid methyl ester] | < 10 µM | 12.8 ± 0.9 days | 18.6 µM | 4.8 ± 1.1 |  |
| O=C(/C=C/c1ccc(O)c(O)c1)N[C@H](Cc1ccc(O)cc1)C(=O)O [Example 46, (R)-2-[trans-3-(3,4-dihydroxy-phenyl)-acryloylamino]-3-(4-hydroxy-phenyl)-propionic acid] | 25 to 50 µM | 11.9 ± 0.9 days | 19 µM | 6.1 ± 0.7 |  |
| O=C(O)[C@H](Cc1ccc(O)c(O)c1)NC(=S)/C=C/c1ccc(O)c(O)c1 [Example 23, 3-(3,4-dihydroxy-phenyl)-(S)-2-[3-trans-(3,4-dihydroxy-phenyl)-thioacryloylamino]-propionic acid] | 25 to 50 µM | 13.2 ± 0.8 days | 16 µM | 6.7 ± 0.8 |  |
| O=C(/C=C/c1ccc(O)c(O)c1)N[C@H](Cc1ccc(O)c(O)c1)C(=O)O [Example 2, 3-(3,4-dihydroxy-phenyl)-(R)-2-[3-trans-(3,4-dihydroxy-phenyl)-acryloylamino]-propionic acid] | < 10 µM | 14.8 ± 0.5 days | 15 µM | 7.2 ± 1.5 |  |
| COC(=O)[C@@H](Cc1ccc(O)c(O)c1)NC(=O)/C=C/c1ccc(O)c(O)c1 [Example 1, 3-(3,4-dihydroxy-phenyl)-(R)-2-[3-trans-(3,4-dihydroxy-phenyl)-acryloylamino]-propionic acid methyl ester] | < 10 µM | 15.1 ± 1.5 days | 1.2 µM | 4.3 ± 1.5 | 11.2 ± 0.5 days |
| CN(CCc1ccc(O)c(O)c1)C(=O)/C=C/c1ccc(O)c(O)c1 [Example 44, 3-(3,4-dihydroxy-phenyl)-N-[2-(3,4-dihydroxy-phenyl)-ethyl]-N-methyl-acrylamide] | 25 to 50 µM | 12.5 ± 0.9 days | 17.4 µM | 6.8 ± 1.0 |  |

Source: patent publication US20040082664A1, “Derivatives of hydroxyphenyl, a method for preparing thereof and their pharmaceutical composition” (priority 2002, published 2004)
